Measured values reported in article PMC7617869, “Molecular glues that inhibit deubiquitylase activity and inflammatory signaling” (Nature Structural & Molecular Biology, 2025).
“And” between values parts separate entries of the source, which are not always exact repeats. Equal values may be shown once.

How the values were obtained:
[1] = test system: ISG expression in MCF10A Cas9 cells expressing BRCC45 R137A; experiment: MCF10A BRCC45 R137A ISG expression (RT–qPCR); type: cell-based, human; settings: hIFNα2 75 ng/ml, 2.5 μM, 4 h
USP2 = molecular target: T1, USP2 (Homo sapiens, UniProt O75604); experiment: USP2 IQF diubiquitin selectivity assay; type: biochemical; settings: for Normalised V0: Fig. 1e, USP-2; for USP2, normalised activity (Ext. 1a): two replicate columns
T1 construct: His (N, cleaved yes); host or cells: Escherichia coli BL21(DE3)
T1 sequence (O75604 258-605 limits assumed): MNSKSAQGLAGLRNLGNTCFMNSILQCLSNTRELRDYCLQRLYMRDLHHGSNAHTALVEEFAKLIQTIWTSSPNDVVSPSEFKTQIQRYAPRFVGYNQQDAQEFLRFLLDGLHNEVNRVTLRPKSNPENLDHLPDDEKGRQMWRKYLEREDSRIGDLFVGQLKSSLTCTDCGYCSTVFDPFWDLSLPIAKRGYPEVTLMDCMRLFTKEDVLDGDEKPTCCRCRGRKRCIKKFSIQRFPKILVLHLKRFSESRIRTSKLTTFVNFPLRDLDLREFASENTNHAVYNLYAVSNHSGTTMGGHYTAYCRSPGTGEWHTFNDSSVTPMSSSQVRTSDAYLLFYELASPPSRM
Procedure: BRISC DUB activity was measured at room temperature using 1 nM BRISC and 500 nM IQF diubiquitin K63 substrate (LifeSensors, DU6303) in the presence of DMSO and compounds at 10 μM (final concentrations). Assays were performed in 384-well black flat-bottom low-flange plates (Corning, 35373) in buffer containing 50 mM HEPES–NaOH pH 7.0, 100 mM NaCl, 1 mg ml^−1 BSA, 1 mM DTT and 0.03% v/v Brij-35. Then, 10 μl of twofold concentrated enzyme stock was dispensed, followed by transfer of 200 nl of compounds (1 mM stock) using a 384-pin tool and a 15-min incubation at room temperature. Then, 10 μl of twofold concentrated substrate stock was added and the reaction was monitored by measuring fluorescence intensity (excitation, 540 nm; emission, 580 nm) after 20-min incubation at room temperature and ~50% of substrate was consumed. Orthogonal assays for verification of H20 and P12 hit compounds using USP2 (100 nM) and trypsin (125 nM) were performed in identical conditions.
(§1) IQF assays were performed in DUB reaction buffer containing 50 mM HEPES–NaOH pH 7.0, 100 mM NaCl, 0.1 mg ml^−1 BSA, 1 mM DTT and 0.03% v/v Brij-35. […] The final concentration of BRISC WT, all BRISC mutants, HsBRISCΔLoop, MmBRISC and DrBRISCΔNΔC was 1 nM. Other enzymes were tested at the following concentrations: 5 nM ARISC (FL), 10 nM CfBRISCΔNΔC, 250 nM AMSH* (ref. [43]), 500 nM USP2 and 1 μM trypsin (Sigma, 9002-07-7). For Michaelis–Menten experiments, 1 nM BRISC with 0–1 μM IQF K63-linked diubiquitin substrate was used. Michaelis–Menten analyses and Lineweaver–Burk plots were calculated using GraphPad Prism (version 9.0).
(§2) To assess enzymatic activity, BRISC complexes were diluted to concentrations between 1 nM and 50 nM. […] Then, 20-μl enzyme reactions were carried out in 384-well black flat-bottom low-flange plates (Corning, 35373). DUB activity was measured using IQF K63-linked diubiquitin (LifeSensors, DU6303) at 50 nM. Cleaved diubiquitin was monitored by measuring fluorescence intensity (excitation, 544 nm; emission, 575 nm; dichroic mirror, 560 nm). Fluorescence intensity was measured every minute for 30 min at 30 °C. Fluorescence intensity units were plotted against time to generate a linear reaction progress curve, where the initial velocity (V0) corresponds to the gradient of the curve (typically achieved within 15 min). IC50 values were calculated using the GraphPad Prism (version 9.0) built-in dose–response equation for inhibitor concentration versus response (variable slope).

BRCC36–Abraxas 2 complex = molecular target: T2, BRCC36–Abraxas 2 complex (Homo sapiens, UniProt P46736+Q15018); experiment: BRCC36–Abraxas 2 IQF DUB activity assay; type: biochemical; settings: for Normalised V0: Fig. 1e, BRCC36-Abraxas2
T2 construct: made in house; host or cells: Spodoptera frugiperda (Sf9) insect cells, MultiBac
Procedure: as §1, §2

- Normalised V0 (USP2; JMS-175-2 0.02 μM): 1.069 and 1.241 and 0.9432
- Normalised V0 (USP2; JMS-175-2 0.0399999 μM): 0.8007 and 1.129 and 1.003
- Normalised V0 (USP2; JMS-175-2 0.0599997 μM): 1.048 and 0.9811 and 1.113
- Normalised V0 (USP2; JMS-175-2 0.0799994 μM): 0.9033 and 1.198 and 1.261
- Normalised V0 (USP2; JMS-175-2 0.119998 μM): 0.9288 and 1.09 and 1.206
- Normalised V0 (USP2; JMS-175-2 0.199996 μM): 0.6627 and 1.115 and 1.202
- Normalised V0 (USP2; JMS-175-2 0.499975 μM): 0.7837 and 1.098 and 1.253
- Normalised V0 (USP2; JMS-175-2 0.799936 μM): 0.8725 and 1 and 1.269
- Normalised V0 (USP2; JMS-175-2 1.25984 μM): 0.992 and 1.247
- Normalised V0 (USP2; JMS-175-2 1.9996 μM): 0.8222 and 1.018 and 1.206
- Normalised V0 (USP2; JMS-175-2 3.159 μM): 1.0183 and 0.9107 and 1.032
- Normalised V0 (USP2; JMS-175-2 5.19739 μM): 1.009 and 1.289
- Normalised V0 (USP2; JMS-175-2 7.99364 μM): 0.8621 and 1.003 and 1.185
- Normalised V0 (USP2; JMS-175-2 12.7839 μM): 0.6092 and 0.9802 and 1.084
- Normalised V0 (USP2; JMS-175-2 19.96 μM): 1.301 and 1.171 and 1.043
- Normalised V0 (USP2; JMS-175-2 31.4999 μM): 1.058 and 1.049 and 0.9631
- Normalised V0 (USP2; JMS-175-2 50.147 μM): 1.16 and 1.045 and 1.064
- Normalised V0 (USP2; JMS-175-2 79.7601 μM): 0.9987 and 0.9518 and 1.282
- Normalised V0 (USP2; JMS-175-2 125.99 μM): 1.008 and 1.145 and 1.176
- Normalised V0 (USP2; JMS-175-2 199.922 μM): 0.9471 and 0.7832 and 0.9905
- USP2, normalised activity (Ext. 1a) (USP2; log [compound (μM)] 0.1938, listed as H20): 1.2610 and 1.0496
- USP2, normalised activity (Ext. 1a) (USP2; log [compound (μM)] 0.4949, listed as H20): 1.2203 and 1.1061
- USP2, normalised activity (Ext. 1a) (USP2; log [compound (μM)] 0.7959, listed as H20): 1.1774 and 1.0526
- USP2, normalised activity (Ext. 1a) (USP2; log [compound (μM)] 1.0969, listed as H20): 1.1262 and 1.0278
- USP2, normalised activity (Ext. 1a) (USP2; log [compound (μM)] 1.3979, listed as H20): 1.0528 and 0.9672
- USP2, normalised activity (Ext. 1a) (USP2; log [compound (μM)] 1.6990, listed as H20): 1.0367 and 0.9078
- USP2, normalised activity (Ext. 1a) (USP2; log [compound (μM)] 2.0000, listed as H20): 0.9400 and 0.8456
- USP2, normalised activity (Ext. 1a) (USP2; log [compound (μM)] 2.3010, listed as H20): 0.9026 and 0.7165
- USP2, normalised activity (Ext. 1a) (USP2; log [compound (μM)] -0.1072, listed as H20): 1.1074 and 1.0499
- USP2, normalised activity (Ext. 1a) (USP2; log [compound (μM)] -0.4082, listed as H20): 1.1923 and 1.0651
- USP2, normalised activity (Ext. 1a) (USP2; log [compound (μM)] -0.7093, listed as H20): 1.1905 and 1.0735
- USP2, normalised activity (Ext. 1a) (USP2; log [compound (μM)] -1.7100, normalisation point): 1.0000
- Normalised V0 (BRCC36–Abraxas 2 complex; JMS-175-2 0.02 μM): 0.9193 and 1.28 and 0.6661
- Normalised V0 (BRCC36–Abraxas 2 complex; JMS-175-2 0.0399999 μM): 0.9382 and 1.101 and 1.021
- Normalised V0 (BRCC36–Abraxas 2 complex; JMS-175-2 0.0599997 μM): 0.9046 and 1.264
- Normalised V0 (BRCC36–Abraxas 2 complex; JMS-175-2 0.0799994 μM): 0.9962 and 1.366 and 1.351
- Normalised V0 (BRCC36–Abraxas 2 complex; JMS-175-2 0.119998 μM): 0.9007 and 1.233 and 1.5528
- Normalised V0 (BRCC36–Abraxas 2 complex; JMS-175-2 0.199996 μM): 1.097 and 1.27 and 0.9275
- Normalised V0 (BRCC36–Abraxas 2 complex; JMS-175-2 0.499975 μM): 0.8805 and 1.153 and 1.01
- Normalised V0 (BRCC36–Abraxas 2 complex; JMS-175-2 0.799936 μM): 0.7961 and 1.246 and 1.323
- Normalised V0 (BRCC36–Abraxas 2 complex; JMS-175-2 1.25984 μM): 1.021 and 1.5206 and 1.034
- Normalised V0 (BRCC36–Abraxas 2 complex; JMS-175-2 1.9996 μM): 0.8007 and 0.8599 and 1.275
- Normalised V0 (BRCC36–Abraxas 2 complex; JMS-175-2 3.159 μM): 1.12 and 1.1529 and 0.9992
- Normalised V0 (BRCC36–Abraxas 2 complex; JMS-175-2 5.19739 μM): 0.8446 and 1.053 and 1.407
- Normalised V0 (BRCC36–Abraxas 2 complex; JMS-175-2 7.99364 μM): 0.9387 and 0.8597 and 1.27
- Normalised V0 (BRCC36–Abraxas 2 complex; JMS-175-2 12.7839 μM): 0.8621 and 1.3106 and 1.2815
- Normalised V0 (BRCC36–Abraxas 2 complex; JMS-175-2 19.96 μM): 0.8364 and 1.032 and 1.13
- Normalised V0 (BRCC36–Abraxas 2 complex; JMS-175-2 31.4999 μM): 0.8279 and 0.9824 and 0.8224
- Normalised V0 (BRCC36–Abraxas 2 complex; JMS-175-2 50.147 μM): 0.8729 and 0.9534 and 1.051
- Normalised V0 (BRCC36–Abraxas 2 complex; JMS-175-2 79.7601 μM): 0.848 and 0.9243 and 1.386
- Normalised V0 (BRCC36–Abraxas 2 complex; JMS-175-2 125.99 μM): 0.7998 and 0.9987 and 1.073
- inhibition of BRCC36–Abraxas 2 complex (BRCC36–Abraxas 2 complex; minimally active complex): did not inhibit
SMILES: O=C(NC1CCNCC1)c1nn(C(=O)c2c(Cl)cccc2Cl)cc1NC(=O)c1c(Cl)cccc1Cl [JMS-175-2]
- ISG expression (ISG15, IFIT1, IFIT2, IFITM1, CXCL10) [1]: a reduction in ISG expression was not observed
